Our source for the IC50 values is patent US9242996B2 (Novartis AG, priority 2013, dated 2016).

Test [1] has as its target T1, activated ERK2 (Homo sapiens (Human), UniProt P28482). Nature of the test: Activated ERK2 kinase assay, ERK2 New conditions (AlphaScreen, ERKtide phosphorylation). It counts as biochemical. To be noted: 0.25 nM ERK2, 200 nM ERKtide peptide, 35 μM ATP, 30 min preincubation. In outline: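 0.25 nM ERK2 preincubated 30 min with compound, then reacted 2–3 h at ambient temperature with 200 nM ERKtide and 35 µM ATP (final) in HEPES pH 7.5 buffer. EDTA stop; phospho-peptide detected by AlphaScreen after overnight incubation; IC50 from four-parameter fit.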
In general terms: Alpha assays give light when donor and acceptor beads are brought close together.

Test [2] concerns the target T1, activated ERK2. Description: Activated ERK2 (20 pM) Kinase Assay (AlphaScreen, ERKtide phosphorylation). The class given is biochemical. Conditions: 0.02 nM ERK2, 400 nM ERKtide peptide, 35 μM ATP, 30 min preincubation. A digest of the protocol: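 Activated human ERK2 (0.02 nM) preincubated 30 min with compounds, then 400 nM ERKtide and 35 μM ATP added for 4 h at ambient temperature in HEPES pH 7.5, MgCl2, DTT, Tween-20, BSA. EDTA stop; phospho-peptide read by AlphaScreen after overnight dark incubation; four-parameter IC50.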

T1 sequence (P28482 whole entry): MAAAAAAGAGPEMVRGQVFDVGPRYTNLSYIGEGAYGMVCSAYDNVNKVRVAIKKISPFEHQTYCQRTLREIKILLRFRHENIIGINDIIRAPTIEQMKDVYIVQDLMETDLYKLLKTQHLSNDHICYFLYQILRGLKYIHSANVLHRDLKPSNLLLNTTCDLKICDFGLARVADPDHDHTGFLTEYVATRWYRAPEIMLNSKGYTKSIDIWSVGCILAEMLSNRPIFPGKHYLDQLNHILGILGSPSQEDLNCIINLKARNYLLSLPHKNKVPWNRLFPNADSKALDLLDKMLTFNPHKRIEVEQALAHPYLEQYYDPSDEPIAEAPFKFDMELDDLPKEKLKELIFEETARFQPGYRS

The IC50 is the point on the concentration scale where inhibition reaches its midpoint. A lower IC50 goes with greater potency. For the compound `C[C@@H](NC(=O)c1ccc(-c2cc(C3CCNC(=O)C3)cnc2N)cc1F)c1cccc(Cl)c1` (mixture of isomers) [Example 120, 4-(2-amino-5-(2-oxopiperidin-4-yl)pyridin-3-yl)-N-((R)-1-(3-chlorophenyl)ethyl)-2-fluorobenzamide], the figures for the IC50 on activated ERK2 [1] and at activated ERK2 [2] were 1.35 nM and 0.536 nM, respectively.
Regarding `Nc1ncc(C2CCNC(=O)C2)cc1-c1ccc(C(=O)N[C@H](CO)c2cccc(Cl)c2)c(F)c1` (mixture of isomers) [Example 121, 4-(2-amino-5-(2-oxopiperidin-4-yl)pyridin-3-yl)-N-((S)-1-(3-chlorophenyl)-2-hydroxyethyl)-2-fluorobenzamide], the IC50 came out at 0.34 nM against activated ERK2 [1] and 0.217 nM at activated ERK2 [2].
The matching figures for `CS(=O)(=O)[C@H]1CC[C@@H](c2cnc(N)c(-c3ccc(C(=O)NCc4ccccc4)c(F)c3)n2)CC1` [Example 16, 4-(3-amino-6-((1s,4s)-4-(methylsulfonyl)cyclohexyl)pyrazin-2-yl)-N-benzyl-2-fluorobenzamide]: 206 nM and 197 nM.
The matching figures for `CN1CC[C@@H](c2cnc(N)c(-c3ccc(C(=O)N[C@H](CO)c4cccc(Cl)c4)c(F)c3)c2)CC1=O` [Example 27, 4-(2-amino-5-((R)-1-methyl-2-oxopiperidin-4-yl)pyridin-3-yl)-N—((S)-1-(3-chlorophenyl)-2-hydroxyethyl)-2-fluorobenzamide]: 4.1 nM and 1.87 nM.
Turning to `CN1CC[C@H](c2cnc(N)c(-c3ccc(C(=O)N[C@H](CO)c4cccc(Cl)c4)c(F)c3)c2)CC1=O` [Example 28, 4-(2-amino-5-((S)-1-methyl-2-oxopiperidin-4-yl)pyridin-3-yl)-N—((S)-1-(3-chlorophenyl)-2-hydroxyethyl)-2-fluorobenzamide], the IC50 against activated ERK2 [1] was 2.55 nM; against activated ERK2 [2], 1.2 nM.
For the compound `C[C@@H](NC(=O)c1ccc(-c2cc([C@@H]3CCN(C)C(=O)C3)cnc2N)cc1F)c1ccccc1` [Example 30, 4-(2-amino-5-((R)-1-methyl-2-oxopiperidin-4-yl)pyridin-3-yl)-2-fluoro-N—((R)-1-phenylethyl)benzamide], the results for the IC50 against activated ERK2 [1] and on activated ERK2 [2] were 69.5 nM and 22.5 nM, respectively.
For `C[C@@H](NC(=O)c1ccc(-c2cc([C@H]3CCN(C)C(=O)C3)cnc2N)cc1F)c1ccccc1` [Example 31, 4-(2-amino-5-((S)-1-methyl-2-oxopiperidin-4-yl)pyridin-3-yl)-2-fluoro-N—((R)-1-phenylethyl)benzamide], the IC50 against activated ERK2 [1] was determined as 74 nM; against activated ERK2 [2], 32 nM.
The matching figures for `C[C@@H](NC(=O)c1ccc(-c2cc([C@H]3CCC(=O)N(C)C3)cnc2N)cc1F)c1cccc(Cl)c1` [Example 39, 4-(2-amino-5-((R)-1-methyl-6-oxopiperidin-3-yl)pyridin-3-yl)-N—((R)-1-(3-chlorophenyl)ethyl)-2-fluorobenzamide]: 2.48 nM and 1.3 nM.
`C[C@@H](NC(=O)c1ccc(-c2cc([C@@H]3CCC(=O)N(C)C3)cnc2N)cc1F)c1cccc(Cl)c1` [Example 40, 4-(2-amino-5-((S)-1-methyl-6-oxopiperidin-3-yl)pyridin-3-yl)-N—((R)-1-(3-chlorophenyl)ethyl)-2-fluorobenzamide]: the IC50 turned out to be 2.46 nM against activated ERK2 [1] and 1.26 nM at activated ERK2 [2].
For `CO[C@H]1CC[C@H](c2cnc(N)c(-c3ccc(C(=O)NCc4ccccc4)c(F)c3)n2)CC1` [Example 116, 4-(3-amino-6-((1r,4r)-4-methoxycyclohexyl)pyrazin-2-yl)-N-benzyl-2-fluorobenzamide], the IC50 at activated ERK2 [1] stood at 18.9 nM; at activated ERK2 [2], 9.42 nM.
As to `Cc1nn(C)cc1-c1cnc(N)c(-c2ccc(C(=O)N[C@H](CO)c3cccc(Cl)c3)c(F)c2)n1` [Example 127, (S)-4-(3-amino-6-(1,3-dimethyl-1H-pyrazol-4-yl)pyrazin-2-yl)-N-(1-(3-chlorophenyl)-2-hydroxyethyl)-2-fluorobenzamide], the IC50 came out at 0.243 nM at activated ERK2 [1] and 0.0604 nM on activated ERK2 [2].
The matching figures for `Cc1c(-c2cnc(N)c(-c3ccc(C(=O)N[C@H](CO)c4cccc(Cl)c4)c(F)c3)c2)cnn1C` [Example 151, (S)-4-(2-amino-5-(1,5-dimethyl-1H-pyrazol-4-yl)pyridin-3-yl)-N-(1-(3-chlorophenyl)-2-hydroxyethyl)-2-fluorobenzamide]: 0.115 nM and 0.0233 nM.
The matching figures for `Cc1nn(C)cc1-c1cnc(N)c(-c2ccc(C(=O)N[C@H](CO)c3cccc(Cl)c3)c(F)c2)c1` [Example 152, (S)-4-(2-amino-5-(1,3-dimethyl-1H-pyrazol-4-yl)pyridin-3-yl)-N-(1-(3-chlorophenyl)-2-hydroxyethyl)-2-fluorobenzamide]: 0.145 nM and 0.041 nM.
On the same counts, the results for `COCCn1cc(-c2cnc(N)c(-c3ccc(C(=O)N[C@H](CO)c4cccc(Cl)c4)c(F)c3)c2)cn1` [Example 172, (S)-4-(2-amino-5-(1-(2-methoxyethyl)-1H-pyrazol-4-yl)pyridin-3-yl)-N-(1-(3-chlorophenyl)-2-hydroxyethyl)-2-fluorobenzamide] are 0.158 nM and 0.0785 nM.
Regarding `Nc1ncc([C@H]2CC[C@H](N)CC2)nc1-c1ccc(C(=O)N[C@H](CO)c2cccc(Cl)c2)c(F)c1` [Example 191, 4-(3-amino-6-((1r,45)-4-aminocyclohexyl)pyrazin-2-yl)-N—((S)-1-(3-chlorophenyl)-2-hydroxyethyl)-2-fluorobenzamide], the results for the IC50 against activated ERK2 [1] and on activated ERK2 [2] were 4.53 nM and 1.49 nM, respectively.
The matching figures for `Nc1ncc([C@H]2CC[C@@H](N)CC2)nc1-c1ccc(C(=O)N[C@H](CO)c2cccc(Cl)c2)c(F)c1` [Example 192, 4-(3-amino-6-((1s,4R)-4-aminocyclohexyl)pyrazin-2-yl)-N—((S)-1-(3-chlorophenyl)-2-hydroxyethyl)-2-fluorobenzamide]: 8.04 nM and 4.93 nM.
Turning to `Cn1cc(-c2cnc(N)c(-c3ccc(C(=O)N[C@H](CO)c4cccc(Cl)c4)c(F)c3)c2)cn1` [Example 263, (S)-4-(2-amino-5-(1-methyl-1H-pyrazol-4-yl)pyridin-3-yl)-N-(1-(3-chlorophenyl)-2-hydroxyethyl)-2-fluorobenzamide], the IC50 against activated ERK2 [1] came out at 0.191 nM; on activated ERK2 [2] it was 0.0923 nM.
The matching figures for `Nc1ncc(C2CCOCC2)nc1-c1ccc(C(=O)N[C@H](CO)c2cccc(F)c2)c(F)c1` [Example 279, (S)-4-(3-amino-6-(tetrahydro-2H-pyran-4-yl)pyrazin-2-yl)-2-fluoro-N-(1-(3-fluorophenyl)-2-hydroxyethyl) benzamide]: 0.518 nM and 0.429 nM.
`CNC(=O)c1ccc(-c2nc(C3CCOCC3)cnc2N)cc1F` [Example 320, 4-(3-amino-6-(tetrahydro-2H-pyran-4-yl)pyrazin-2-yl)-2-fluoro-N-methylbenzamide] yielded an IC50 against activated ERK2 [1] of 354 nM.
Same read-out and setting: in the case of `Nc1ncc(C2CCOCC2)nc1-c1ccc(C(=O)N2CCOC[C@@H]2c2ccccc2)cc1` [Example 322, (S)-(4-(3-amino-6-(tetrahydro-2H-pyran-4-yl)pyrazin-2-yl)phenyl)(3-phenylmorpholino) methanone] it was 91.2 nM; in that of `CS(=O)(=O)c1cccc(CNC(=O)c2ccc(-c3nc(C4CCOCC4)cnc3N)cc2)c1` [Example 323, 4-(3-amino-6-(tetrahydro-2H-pyran-4-yl)pyrazin-2-yl)-N-(3-(methylsulfonyl)benzyl)benzamide], 3.29 nM.
For `NC[C@@H](NC(=O)c1ccc(-c2nc(C3CCOCC3)cnc2N)cc1F)c1ccccc1` [Example 326, (S)-N-(2-amino-1-phenylethyl)-4-(3-amino-6-(tetrahydro-2H-pyran-4-yl)pyrazin-2-yl)-2-fluorobenzamide], the midpoint of inhibition against activated ERK2 [1], the IC50, lay at 0.253 nM.
Still for that read-out and setting: the same measure for `Nc1ncc(C2CCOCC2)nc1-c1ccc(C(=O)N[C@H](CF)c2ccccc2)cc1` [Example 327, (S)-4-(3-amino-6-(tetrahydro-2H-pyran-4-yl)pyrazin-2-yl)-N-(2-fluoro-1-phenylethyl) benzamide]: 54.2 nM; for `Nc1ncc(C2CCC3(CC2)OCCO3)nc1-c1ccc(C(=O)NCc2ccccc2)c(F)c1` [Example 413, 4-(3-amino-6-(1,4-dioxaspiro[4.5]decan-8-yl)pyrazin-2-yl)-N-benzyl-2-fluorobenzamide]: 204 nM.
Same read-out and setting: the same measure for `C[C@@H](NC(=O)c1ccc(-c2nc([C@H]3CC[C@H](O)CC3)cnc2N)cc1F)c1cccc(Cl)c1` [Example 415, 4-(3-amino-6-((1r,4R)-4-hydroxy-cyclohexyl)pyrazin-2-yl)-N-((R)-1-(3-chlorophenyl)ethyl)-2-fluorobenzamide]: 1.68 nM; for `C[C@@H](NC(=O)c1ccc(-c2nc([C@H]3CC[C@@H](O)CC3)cnc2N)cc1F)c1cccc(Cl)c1` [Example 416, 4-(3-amino-6-((1s,4S)-4-hydroxy-cyclohexyl)pyrazin-2-yl)-N-((R)-1-(3-chlorophenyl)ethyl)-2-fluorobenzamide]: 5.68 nM.
Same read-out and setting: in the case of `C[C@@H](NC(=O)c1ccc(-c2nc([C@H]3CC[C@H](O)CC3)cnc2N)cc1F)c1cc(F)cc(S(C)(=O)=O)c1` [Example 419, 4-(3-amino-6-((1r,4R)-4-hydroxy-cyclohexyl)pyrazin-2-yl)-2-fluoro-N-((R)-1-(3-fluoro-5-(methylsulfonyl)phenyl)ethyl) benzamide] it was 0.853 nM; in that of `C[C@@H](NC(=O)c1ccc(-c2nc([C@H]3CC[C@@H](O)CC3)cnc2N)cc1F)c1cc(F)cc(S(C)(=O)=O)c1` [Example 420, 4-(3-amino-6-((1s,4S)-4-hydroxy-cyclohexyl)pyrazin-2-yl)-2-fluoro-N-((R)-1-(3-fluoro-5-(methylsulfonyl)phenyl)ethyl) benzamide], 1.95 nM.
